Literature values, collected in paper PMC3459150 (Atherosclerosis, 2012).

What was measured:
[1] = system: dyslipidemic mouse models
[2] = apo E null mice
apoE null mice = conditions: chronic administration

Sequence | Inhibition of atherosclerosis [1] | Plasma cholesterol levels [1] | Half-time of clearance ([2]; peritoneally-injected) [h] | Atheroprotection / inhibition of atherosclerosis (apoE null mice) | Half-time of clearance, rapid phase ([2]; intravenous, bi-phasic) [h] | Half-time of clearance, slow phase ([2]; intravenous, bi-phasic) [h]
DWFKAFYDKVAEKFKEAF [4F] | able to inhibit atherosclerosis | without changing plasma cholesterol levels | 2.01 | – | – | –
LRKLRKRLLRDWLKAFYDKVAEKLKEAF [Ac-hE18A-NH2] | – | – | – | inhibits atherosclerosis | 0.027 | 1.61
